# Assay results taken from US9937152B2, “Derivative of styrene-maleic acid copolymer” (priority 2013, dated 2018).
# Legend:
# colon cancer (C26) = type: in vivo, Balb mice
# Procedure: SMA-THP and pirarubicin (THP) were administered intravenously to mice at the respective dose shown in Table 2 at Day 10 from the inoculation of cancer in mice, and the antitumor effect was evaluated at Day 50. Subsequently, 5×10^5 colon cancer (C26) cells were inoculated in the back in Balb mice and the model animals with tumor size of 5 to 6 mm at about Day 7 to 9 were treated.
# in vivo = settings: mouse
# [1] = dose 3 mg/kg (MTD amount) i.v. at Day 10, evaluated at Day 50
compound,measurement,setting,value
"COc1cccc2c1C(=O)c1c(O)c3c(c(O)c1C2=O)C[C@@](O)(C(=O)CO)C[C@@H]3O[C@H]1C[C@H](N)[C@H](O[C@@H]2CCCCO2)[C@H](C)O1 [THP, pirarubicin]","Number of Metastatic Cancerous Nodes/Mouse: (1~5) (+), mice/group",colon cancer (C26); [1],2/5
same,"Number of Metastatic Cancerous Nodes/Mouse: (>6) (++), mice/group",colon cancer (C26); [1],3/5
same,"Number of Metastatic Cancerous Nodes/Mouse: No Metastasis (−), mice/group",colon cancer (C26); [1],0/5
same,effect on the metastatic cancers,colon cancer (C26); maximum tolerated dose of 3 mg/kg,almost ineffective
same,MTD,"in vivo; Balb, iv",3 mg/kg
same,LD50,in vivo,14.4 mg/kg
